Laboratory results from patent publication US10004701B2, “Methods and compositions for treating infection” (UNIVERSITY OF ROCHESTER, priority 2012, dated 2018).
Structures can show the parent of a compound that is named as a salt. Where two headings read alike, the source gives them in different places.

Assays:
Assay in all cases: AK assay 384-well format, Prestwick library screening
P. aeruginosa = assay type: cell-based, Pseudomonas aeruginosa; conditions: 50 μM final drug concentration; for fold induction at 50 µM: Pseudomonas aeruginosa, 3 h
K. pneumoniae = assay type: cell-based, Klebsiella pneumoniae; conditions: 50 μM final drug concentration; for fold induction at 50 µM: Klebsiella pneumoniae, 3 h
[1] = system: A. baumannii strain 98-37-09; assay type: cell-based, Acinetobacter baumannii; conditions: 50 μM final drug concentration; for fold induction at 50 µM: Acinetobacter baumannii, 983709, 3 h
E. cloacae = assay type: cell-based, Enterobacter cloacae; conditions: 50 μM final drug concentration; for fold induction at 50 µM: Enterobacter cloacae, 3 h
[2] = system: S. aureus strain USA300-0114; assay type: cell-based, Staphylococcus aureus; conditions: 50 μM final drug concentration; for fold induction at 50 µM: Staphylococcus aureus, USA300, 3 h
E. coli = assay type: cell-based, Escherichia coli; conditions: 50 μM final drug concentration; for fold induction at 50 µM: Escherichia coli, 3 h
E. faecium = assay type: cell-based, Enterococcus faecium; conditions: 50 μM final drug concentration; for fold induction at 50 µM: Enterococcus faecium, 3 h
[3] = cutoff for positive-scoring molecules 3-fold increase
[4] = planktonic, cutoff for positive 3-fold increase

## CN(Cc1cnc2nc(N)nc(N)c2n1)c1ccc(C(=O)N[C@@H](CCC(=O)O)C(=O)O)cc1 [Methotrexate]
P. aeruginosa; planktonic P. aeruginosa, 384-well, cutoff for positive-scoring molecules 3-fold increase, read-out: AK-based Prestwick Library Screening Results: P. aeruginosa (increase in extracellular AK activity)
  fold induction at 50 µM: 1
K. pneumoniae; planktonic K. pneumoniae, 384-well, cutoff for positive-scoring molecules 3-fold increase, read-out: AK-based Prestwick Library Screening Results: K. pneumoniae (increase in extracellular AK activity)
  fold induction at 50 µM: 0.8
[1]; planktonic A. baumannii, 384-well, cutoff for positive-scoring molecules 3-fold increase, read-out: AK-based Prestwick Library Screening Results: A. baumannii (increase in extracellular AK activity)
  fold induction at 50 µM: 1
E. cloacae; planktonic E. cloacae, 384-well, cutoff for positive-scoring molecules 3-fold increase, read-out: AK-based Prestwick Library Screening Results: E. cloacae (increase in extracellular AK activity)
  fold induction at 50 µM: 1.3
[2]; planktonic S. aureus, 384-well, cutoff for positive-scoring molecules 3-fold increase, read-out: AK-based Prestwick Library Screening Results: S. aureus (increase in extracellular AK activity)
  fold induction at 50 µM: 0.9
E. coli; planktonic E. coli, 384-well, […], read-out: AK-based Prestwick Library Screening Results: E. coli (increase in extracellular AK activity)
  fold induction at 50 µM: 1.1
E. faecium; planktonic E. faecium, 384-well, cutoff for positive-scoring molecules 3-fold increase, read-out: AK-based Prestwick Library Screening Results: E. faecium (increase in extracellular AK activity)
  fold induction at 50 µM: 0.8

## COc1ccc2c(c1)N(C[C@H](C)CN(C)C)c1ccccc1S2.O=C(O)/C=C\C(=O)O [Methotrimeprazine maleat salt]
P. aeruginosa; [3]
  AK-based Prestwick Library Screening Results, P. aeruginosa (fold increase in extracellular AK activity): 1.1
K. pneumoniae; [3]
  AK-based Prestwick Library Screening Results, K. pneumoniae (fold increase in extracellular AK activity): 1.0
[1]; [3]
  AK-based Prestwick Library Screening Results, A. baumannii (fold increase in extracellular AK activity): 1.1
E. cloacae; [3]
  AK-based Prestwick Library Screening Results, E. cloacae (fold increase in extracellular AK activity): 1.8
[2]; [3]
  AK-based Prestwick Library Screening Results, S. aureus (fold increase in extracellular AK activity): 1.2
E. coli; [3]
  AK-based Prestwick Library Screening Results, E. coli (fold increase in extracellular AK activity): 1.3
E. faecium; [3]
  AK-based Prestwick Library Screening Results, E. faecium (fold increase in extracellular AK activity): 1.0

## COc1ccc(OC)c(C(O)C(C)N)c1 (stereo not drawn) [Methoxamine hydrochloride]
P. aeruginosa; planktonic, cutoff for positive 3-fold increase, read-out: AK-based Prestwick Library Screening Results, P. aeruginosa (fold increase in extracellular AK activity)
  fold induction at 50 µM: 1.2
K. pneumoniae; planktonic, cutoff for positive 3-fold increase, read-out: AK-based Prestwick Library Screening Results, K. pneumoniae (fold increase in extracellular AK activity)
  fold induction at 50 µM: 1
[1]; planktonic, cutoff for positive 3-fold increase, read-out: AK-based Prestwick Library Screening Results, A. baumannii (fold increase in extracellular AK activity)
  fold induction at 50 µM: 1
E. cloacae; planktonic, cutoff for positive 3-fold increase, read-out: AK-based Prestwick Library Screening Results, E. cloacae (fold increase in extracellular AK activity)
  fold induction at 50 µM: 1.4
[2]; planktonic, cutoff for positive 3-fold increase, read-out: AK-based Prestwick Library Screening Results, S. aureus (fold increase in extracellular AK activity)
  fold induction at 50 µM: 0.9
E. coli; planktonic, cutoff for positive 3-fold increase, read-out: AK-based Prestwick Library Screening Results, E. coli (fold increase in extracellular AK activity)
  fold induction at 50 µM: 1.1
E. faecium; planktonic, cutoff for positive 3-fold increase, read-out: AK-based Prestwick Library Screening Results, E. faecium (fold increase in extracellular AK activity)
  fold induction at 50 µM: 1

## COc1ccc2[nH]c3c(c2c1)CCN=C3C [Methoxy-6-harmalan]
P. aeruginosa; planktonic, […]
  AK-based Prestwick Library Screening Results, P. aeruginosa (fold increase in extracellular AK activity): 1.2
K. pneumoniae; planktonic, […]
  AK-based Prestwick Library Screening Results, K. pneumoniae (fold increase in extracellular AK activity): 1.0
[1]; planktonic, […]
  AK-based Prestwick Library Screening Results, A. baumannii (fold increase in extracellular AK activity): 1.3
E. cloacae; planktonic, […]
  AK-based Prestwick Library Screening Results, E. cloacae (fold increase in extracellular AK activity): 1.4
[2]; planktonic, […]
  AK-based Prestwick Library Screening Results, S. aureus (fold increase in extracellular AK activity): 0.8
E. coli; planktonic, […]
  AK-based Prestwick Library Screening Results, E. coli (fold increase in extracellular AK activity): 1.4
E. faecium; planktonic, […]
  AK-based Prestwick Library Screening Results, E. faecium (fold increase in extracellular AK activity): 1.0

## COc1c2occc2cc2ccc(=O)oc12 [Methoxy-8-psoralen]
P. aeruginosa; [4]
  AK-based Prestwick Library Screening Results, P. aeruginosa (fold increase in extracellular AK activity): 1.0
K. pneumoniae; [4]
  AK-based Prestwick Library Screening Results, K. pneumoniae (fold increase in extracellular AK activity): 0.9
[1]; [4]
  AK-based Prestwick Library Screening Results, A. baumannii (fold increase in extracellular AK activity): 1.0
E. cloacae; [4]
  AK-based Prestwick Library Screening Results, E. cloacae (fold increase in extracellular AK activity): 1.5
[2]; [4]
  AK-based Prestwick Library Screening Results, S. aureus (fold increase in extracellular AK activity): 1.0
E. coli; [4]
  AK-based Prestwick Library Screening Results, E. coli (fold increase in extracellular AK activity): 1.1
E. faecium; [4]
  AK-based Prestwick Library Screening Results, E. faecium (fold increase in extracellular AK activity): 1.1

## C[N+]1(C)[C@@H]2CC[C@H]1C[C@@H](OC(=O)C(CO)c1ccccc1)C2 (stereo partly drawn) [Methylatropine nitrate]
P. aeruginosa; planktonic, cutoff for positive-scoring molecules 3-fold increase, read-out: AK-based Prestwick Library Screening Results, P. aeruginosa (fold increase in extracellular AK activity)
  fold induction at 50 µM: 0.7
K. pneumoniae; planktonic, cutoff for positive-scoring molecules 3-fold increase, read-out: AK-based Prestwick Library Screening Results, K. pneumoniae (fold increase in extracellular AK activity)
  fold induction at 50 µM: 0.6
[1]; planktonic, cutoff for positive-scoring molecules 3-fold increase, read-out: AK-based Prestwick Library Screening Results, A. baumannii (fold increase in extracellular AK activity)
  fold induction at 50 µM: 0.7
E. cloacae; planktonic, cutoff for positive-scoring molecules 3-fold increase, read-out: AK-based Prestwick Library Screening Results, E. cloacae (fold increase in extracellular AK activity)
  fold induction at 50 µM: 0.8
[2]; planktonic, cutoff for positive-scoring molecules 3-fold increase, read-out: AK-based Prestwick Library Screening Results, S. aureus (fold increase in extracellular AK activity)
  fold induction at 50 µM: 0.6
E. coli; planktonic, cutoff for positive-scoring molecules 3-fold increase, read-out: AK-based Prestwick Library Screening Results, E. coli (fold increase in extracellular AK activity)
  fold induction at 50 µM: 0.7
E. faecium; planktonic, cutoff for positive-scoring molecules 3-fold increase, read-out: AK-based Prestwick Library Screening Results, E. faecium (fold increase in extracellular AK activity)
  fold induction at 50 µM: 1

## C[C@](N)(Cc1ccc(O)c(O)c1)C(=O)O [Methyldopa (L,−)]
P. aeruginosa; planktonic P. aeruginosa, 384-well, cutoff for positive-scoring molecules 3-fold increase
  AK-based Prestwick Library Screening Results: P. aeruginosa (increase in extracellular AK activity): 0.4
K. pneumoniae; planktonic K. pneumoniae, 384-well, cutoff for positive-scoring molecules 3-fold increase
  AK-based Prestwick Library Screening Results: K. pneumoniae (increase in extracellular AK activity): 0.6
[1]; planktonic A. baumannii, 384-well, cutoff for positive-scoring molecules 3-fold increase
  AK-based Prestwick Library Screening Results: A. baumannii (increase in extracellular AK activity): 0.5
E. cloacae; planktonic E. cloacae, 384-well, cutoff for positive-scoring molecules 3-fold increase
  AK-based Prestwick Library Screening Results: E. cloacae (increase in extracellular AK activity): 0.5
[2]; planktonic S. aureus, 384-well, cutoff for positive-scoring molecules 3-fold increase
  AK-based Prestwick Library Screening Results: S. aureus (increase in extracellular AK activity): 0.4
E. coli; planktonic E. coli, 384-well, cutoff for positive-scoring molecules 3-fold increase
  AK-based Prestwick Library Screening Results: E. coli (increase in extracellular AK activity): 0.6
E. faecium; planktonic E. faecium, 384-well, cutoff for positive-scoring molecules 3-fold increase
  AK-based Prestwick Library Screening Results: E. faecium (increase in extracellular AK activity): 0.9

## CCOC(=O)[C@@](C)(N)Cc1ccc(O)c(O)c1 [Methyldopate hydrochloride]
P. aeruginosa; planktonic P. aeruginosa, positive cutoff 3-fold increase, read-out: AK-based Prestwick library screening result, P. aeruginosa (fold increase in extracellular AK activity)
  fold induction at 50 µM: 1.1
K. pneumoniae; planktonic K. pneumoniae, positive cutoff 3-fold increase, read-out: AK-based Prestwick library screening result, K. pneumoniae (fold increase in extracellular AK activity)
  fold induction at 50 µM: 1.2
[1]; planktonic A. baumannii, positive cutoff 3-fold increase, read-out: AK-based Prestwick library screening result, A. baumannii (fold increase in extracellular AK activity)
  fold induction at 50 µM: 1.4
E. cloacae; planktonic E. cloacae, positive cutoff 3-fold increase, read-out: AK-based Prestwick library screening result, E. cloacae (fold increase in extracellular AK activity)
  fold induction at 50 µM: 1.8
[2]; planktonic S. aureus, positive cutoff 3-fold increase, read-out: AK-based Prestwick library screening result, S. aureus (fold increase in extracellular AK activity)
  fold induction at 50 µM: 1.2
E. coli; planktonic E. coli, positive cutoff 3-fold increase, read-out: AK-based Prestwick library screening result, E. coli (fold increase in extracellular AK activity)
  fold induction at 50 µM: 1.2
E. faecium; planktonic E. faecium, positive cutoff 3-fold increase, read-out: AK-based Prestwick library screening result, E. faecium (fold increase in extracellular AK activity)
  fold induction at 50 µM: 1.1

## CC[C@@H](CO)NC(=O)[C@@H]1C=C2c3cccc4[nH]cc(c34)C[C@H]2N(C)C1 [Methylergometrine maleate]
P. aeruginosa; planktonic, […], read-out: AK-based Prestwick Library Screening Results, P. aeruginosa (fold increase in extracellular AK activity)
  fold induction at 50 µM: 0.9
K. pneumoniae; planktonic, […], read-out: AK-based Prestwick Library Screening Results, K. pneumoniae (fold increase in extracellular AK activity)
  fold induction at 50 µM: 1
[1]; planktonic, […], read-out: AK-based Prestwick Library Screening Results, A. baumannii (fold increase in extracellular AK activity)
  fold induction at 50 µM: 0.9
E. cloacae; planktonic, […], read-out: AK-based Prestwick Library Screening Results, E. cloacae (fold increase in extracellular AK activity)
  fold induction at 50 µM: 1.6
[2]; planktonic, […], read-out: AK-based Prestwick Library Screening Results, S. aureus (fold increase in extracellular AK activity)
  fold induction at 50 µM: 0.8
E. coli; planktonic, […], read-out: AK-based Prestwick Library Screening Results, E. coli (fold increase in extracellular AK activity)
  fold induction at 50 µM: 1
E. faecium; planktonic, […], read-out: AK-based Prestwick Library Screening Results, E. faecium (fold increase in extracellular AK activity)
  fold induction at 50 µM: 0.9
